From US9283222B2 (priority 2006, dated 2016)

Molecular target: Recombinant Human Poly(ADP-Ribose) Polymerase (PARP), PARP-1 (Homo sapiens (Human), UniProt P09874)
Conditions: read-out: PARP-1 (Ki); Table 1; text calls the values EC50s

Recombinant Human Poly(ADP-Ribose) Polymerase (PARP), PARP-1, sequence (P09874 whole entry): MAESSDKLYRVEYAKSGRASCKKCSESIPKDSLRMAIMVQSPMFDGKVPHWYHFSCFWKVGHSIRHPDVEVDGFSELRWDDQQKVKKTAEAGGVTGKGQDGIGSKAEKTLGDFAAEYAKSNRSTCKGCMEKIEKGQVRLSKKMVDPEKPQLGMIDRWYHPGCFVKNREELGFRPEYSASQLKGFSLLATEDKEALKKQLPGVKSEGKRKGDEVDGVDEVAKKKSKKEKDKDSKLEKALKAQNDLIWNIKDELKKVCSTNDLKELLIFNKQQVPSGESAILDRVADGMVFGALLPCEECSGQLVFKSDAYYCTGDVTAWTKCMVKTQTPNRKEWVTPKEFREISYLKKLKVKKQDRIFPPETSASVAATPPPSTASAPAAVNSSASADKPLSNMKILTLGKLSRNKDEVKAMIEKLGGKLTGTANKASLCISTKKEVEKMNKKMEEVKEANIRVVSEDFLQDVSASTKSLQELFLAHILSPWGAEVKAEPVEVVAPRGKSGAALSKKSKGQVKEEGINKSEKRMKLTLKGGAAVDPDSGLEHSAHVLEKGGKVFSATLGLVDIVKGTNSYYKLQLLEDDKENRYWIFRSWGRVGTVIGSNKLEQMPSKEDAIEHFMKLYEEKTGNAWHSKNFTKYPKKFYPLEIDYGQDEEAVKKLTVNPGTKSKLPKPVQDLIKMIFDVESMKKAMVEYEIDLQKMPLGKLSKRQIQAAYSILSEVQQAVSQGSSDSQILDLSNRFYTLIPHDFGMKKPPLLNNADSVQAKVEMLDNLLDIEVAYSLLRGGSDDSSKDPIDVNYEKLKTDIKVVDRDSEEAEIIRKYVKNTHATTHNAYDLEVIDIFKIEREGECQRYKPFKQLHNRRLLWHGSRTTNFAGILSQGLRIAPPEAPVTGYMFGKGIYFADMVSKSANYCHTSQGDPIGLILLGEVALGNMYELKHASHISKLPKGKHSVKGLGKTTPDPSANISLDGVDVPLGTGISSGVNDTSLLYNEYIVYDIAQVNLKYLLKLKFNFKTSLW

Compound | Ki [nM]
O=C(Nc1ccc(Cc2n[nH]c(=O)c3c2CCCC3)cn1)c1cccnc1 [Example 108, N-(5-((4-oxo-3,4,5,6,7,8-hexahydrophthalazin-1-yl)methyl)pyridin-2-yl)nicotinamide] | 576
Cc1cc(NC(=O)c2cccc(Cc3n[nH]c(=O)c4c3CCCC4)c2)ccc1F [Example 341, N-(4-fluoro-3-methylphenyl)-3-((4-oxo-3,4,5,6,7,8-hexahydrophthalazin-1-yl)methyl)benzamide] | 154
CC(C)(C)c1ccc(NC(=O)c2cccc(Cc3n[nH]c(=O)c4c3CCCC4)c2)cc1 [Example 336, N-(4-tert-butylphenyl)-3-((4-oxo-3,4,5,6,7,8-hexahydrophthalazin-1-yl)methyl)benzamide] | 363
O=c1[nH]nc(Cc2ccc(F)c(N3CCCCS3(=O)=O)c2)c2c1CCCC2 [Example 448] | 694
O=C(Nc1cccc(Cc2n[nH]c(=O)c3c2CCCC3)c1)c1nccs1 [Example 204, N-(3-((4-oxo-3,4,5,6,7,8-hexahydrophthalazin-1-yl)methyl)phenyl)-1,3-thiazole-2-carboxamide] | 203
O=C1CCCN1c1cccc(CCc2n[nH]c(=O)c3c2CCCC3)c1 [Example 262, 4-(2-(3-(2-oxopyrrolidin-1-yl)phenyl)ethyl)-5,6,7,8-tetrahydrophthalazin-1(2H)-one] | 304
CC(C)(C)NC(=O)Nc1cc(Cc2n[nH]c(=O)c3c2CCCC3)ccc1F [Example 542, N-(tert-butyl)-N′-{2-fluoro-5-[(4-oxo-3,4,5,6,7,8-hexahydrophthalazin-1-yl)methyl]phenyl}urea] | 548
COc1ccc(C(C)(C)C)cc1NC(=O)c1cccc(Cc2n[nH]c(=O)c3c2CCCC3)c1 [Example 356, N-(5-tert-butyl-2-methoxyphenyl)-3-((4-oxo-3,4,5,6,7,8-hexahydrophthalazin-1-yl)methyl)benzamide] | 180
CC(C)NC(=O)Nc1cc(Cc2n[nH]c(=O)c3c2CCCC3)ccc1F [Example 538, N-{2-fluoro-5-[(4-oxo-3,4,5,6,7,8-hexahydrophthalazin-1-yl)methyl]phenyl}-N′-isopropylurea] | 374
O=C(c1cc(Cc2n[nH]c(=O)c3c2CCCC3)ccc1F)N1CCN(c2ccc(F)cc2)CC1 [Example 528, 4-(4-fluoro-3-{[4-(4-fluorophenyl)piperazin-1-yl]carbonyl}benzyl)-5,6,7,8-tetrahydrophthalazin-1(2H)-one] | 4
Cc1ccc(CCNC(=O)c2cccc(Cc3n[nH]c(=O)c4c3CCCC4)c2)c(C)c1 [Example 398, N-(2-(2,4-dimethylphenyl)ethyl)-3-((4-oxo-3,4,5,6,7,8-hexahydrophthalazin-1-yl)methyl)benzamide] | 82
Cc1ccsc1C(=O)Nc1cccc(Cc2n[nH]c(=O)c3c2CCCC3)c1 [Example 198, 3-methyl-N-(3-((4-oxo-3,4,5,6,7,8-hexahydrophthalazin-1-yl)methyl)phenyl)thiophene-2-carboxamide] | 403
CS(=O)(=O)Nc1cccc(-c2cc(CCc3n[nH]c(=O)c4c3CCCC4)ccc2F)c1 [Example 273, N-(2′-fluoro-5′-(2-(4-oxo-3,4,5,6,7,8-hexahydrophthalazin-1-yl)ethyl)-1,1′-biphenyl-3-yl)methanesulfonamide] | 257
O=C(Nc1cccc(Cc2n[nH]c(=O)c3c2CCCC3)c1)c1ccccc1Cc1ccccc1 [Example 239, 2-benzyl-N-(3-((4-oxo-3,4,5,6,7,8-hexahydrophthalazin-1-yl)methyl)phenyl)benzamide] | 554
CC(Cc1n[nH]c(=O)c2c1CCCC2)c1cccc(C(=O)O)c1 (centres unmarked) [Example 288, 3-(1-methyl-2-(4-oxo-3,4,5,6,7,8-hexahydrophthalazin-1-yl)ethyl)benzoic acid] | 431
Nc1cccc(Cc2n[nH]c(=O)c3c2CCCC3)c1 [Example 89, 4-(3-aminobenzyl)-5,6,7,8-tetrahydrophthalazin-1(2H)-one] | 111
O=C(c1ccc(-c2cc(CCc3n[nH]c(=O)c4c3CCCC4)ccc2F)cc1)N1CCOCC1 [Example 267, 4-(2-(6-fluoro-4′-(morpholin-4-ylcarbonyl)-1,1′-biphenyl-3-yl)ethyl)-5,6,7,8-tetrahydrophthalazin-1(2H)-one] | 534
O=C(Nc1cccc(Cc2n[nH]c(=O)c3c2CCCC3)c1)c1ccc[nH]1 [Example 200] | 158
O=C(Nc1cccc(Cc2n[nH]c(=O)c3c2CCCC3)c1)c1ccc2ccccc2c1 [Example 231, N-(3-((4-oxo-3,4,5,6,7,8-hexahydrophthalazin-1-yl)methyl)phenyl)-2-naphthamide] | 110
Cn1cnc(S(=O)(=O)Nc2cccc(Cc3n[nH]c(=O)c4c3CCCC4)c2)c1 [Example 119, 1-methyl-N-(3-((4-oxo-3,4,5,6,7,8-hexahydrophthalazin-1-yl)methyl)phenyl)-1H-imidazole-4-sulfonamide] | 703

Further lines, results first:

Ki [nM] | Compound
4 | O=C(Nc1cccc(Cc2n[nH]c(=O)c3c2CCCC3)c1)c1ccc2ccccc2c1O [Example 236, 1-hydroxy-N-(3-((4-oxo-3,4,5,6,7,8-hexahydrophthalazin-1-yl)methyl)phenyl)-2-naphthamide]
3 | O=C(c1cc(Cc2n[nH]c(=O)c3c2CCCC3)ccc1F)N1CCN(CCOc2ccccc2)CC1 [Example 577, 4-(4-fluoro-3-{[4-(2-phenoxyethyl)piperazin-1-yl]carbonyl}benzyl)-5,6,7,8-tetrahydrophthalazin-1(2H)-one]
50 | CNC(=O)c1cc(Cc2n[nH]c(=O)c3c2CCCC3)ccn1 [Example 67, N-methyl-4-((4-oxo-3,4,5,6,7,8-hexahydrophthalazin-1-yl)methyl)pyridine-2-carboxamide]
33 | COc1ccc(NC(=O)c2cccc(Cc3n[nH]c(=O)c4c3CCCC4)c2)cc1F [Example 346, N-(3-fluoro-4-methoxyphenyl)-3-((4-oxo-3,4,5,6,7,8-hexahydrophthalazin-1-yl)methyl)benzamide]
2.6 | O=C(c1cccnc1)N1CCCN(C(=O)c2cc(Cc3n[nH]c(=O)c4c3NCCC4)ccc2F)CC1 [Example 683, 8-(4-fluoro-3-{[4-(pyridin-3-ylcarbonyl)-1,4-diazepan-1-yl]carbonyl}benzyl)-2,3,4,6-tetrahydropyrido[2,3-d]pyridazin-5(1H)-one]
1.8 | O=C(OCc1ccccc1)N1CCN(C(=O)c2cc(Cc3n[nH]c(=O)c4c3NCCC4)ccc2F)CC1 [Example 613, benzyl 4-{2-fluoro-5-[(5-oxo-1,2,3,4,5,6-hexahydropyrido[2,3-d]pyridazin-8-yl)methyl]benzoyl}piperazine-1-carboxylate]
7 | O=C(Nc1cccc(Cc2n[nH]c(=O)c3c2CCCC3)c1)c1ccc(O)nc1 [Example 214, 6-hydroxy-N-(3-((4-oxo-3,4,5,6,7,8-hexahydrophthalazin-1-yl)methyl)phenyl)nicotinamide]
1.8 | Cn1cnc(C(=O)N2CCCN(C(=O)c3cc(Cc4n[nH]c(=O)c5c4CCCC5)ccc3F)CC2)c1 [Example 636, 4-[4-fluoro-3-({4-[(1-methyl-1H-imidazol-4-yl)carbonyl]-1,4-diazepan-1-yl}carbonyl)benzyl]-5,6,7,8-tetrahydrophthalazin-1(2H)-one]
2.7 | CCN(CCNC(=O)N1CCCC1)C(=O)c1cc(Cc2n[nH]c(=O)c3c2CCCC3)ccc1F [Example 743, N-[2-(ethyl{2-fluoro-5-[(4-oxo-3,4,5,6,7,8-hexahydrophthalazin-1-yl)methyl]benzoyl}amino)ethyl]pyrrolidine-1-carboxamide]
44 | COc1cccc(CCNC(=O)c2cccc(Cc3n[nH]c(=O)c4c3CCCC4)c2)c1 [Example 383, N-(2-(3-methoxyphenyl)ethyl)-3-((4-oxo-3,4,5,6,7,8-hexahydrophthalazin-1-yl)methyl)benzamide]
11 | O=C(CNC(=O)c1ccccc1)Nc1cccc(Cc2n[nH]c(=O)c3c2CCCC3)c1 [Example 160, N-(2-oxo-2-(3-((4-oxo-3,4,5,6,7,8-hexahydrophthalazin-1-yl)methyl)phenylamino)ethyl)benzamide]
0.5 | O=C(COc1ccccc1)N1CCN(C(=O)c2cc(Cc3n[nH]c(=O)c4c3NCCC4)ccc2F)CC1 [Example 591, 8-(4-fluoro-3-{[4-(phenoxyacetyl)piperazin-1-yl]carbonyl}benzyl)-2,3,4,6-tetrahydropyrido[2,3-d]pyridazin-5(1H)-one]
1 | O=C(c1cc(Cc2n[nH]c(=O)c3c2NCCC3)ccc1F)N1CCN(c2ccccc2F)CC1 [Example 549, 8-(4-fluoro-3-{[4-(2-fluorophenyl)piperazin-1-yl]carbonyl}benzyl)-2,3,4,6-tetrahydropyrido[2,3-d]pyridazin-5(1H)-one]
58 | O=C(NCc1cccnc1)c1cccc(Cc2n[nH]c(=O)c3c2CCCC3)c1 [Example 311, 3-((4-oxo-3,4,5,6,7,8-hexahydrophthalazin-1-yl)methyl)-N-(pyridin-3-ylmethyl)benzamide]
0.9 | Cc1cncc(N2CCN(C(=O)c3cc(Cc4n[nH]c(=O)c5c4NCCC5)ccc3F)CC2)n1 [Example 573, 8-(4-fluoro-3-{[4-(6-methylpyrazin-2-yl)piperazin-1-yl]carbonyl}benzyl)-2,3,4,6-tetrahydropyrido[2,3-d]pyridazin-5(1H)-one]
1.1 | O=C(c1cc(Cc2n[nH]c(=O)c3c2CCCC3)ccc1F)N1CCN(c2ccncc2)CC1 [Example 497, 4-{4-fluoro-3-[(4-pyridin-4-ylpiperazin-1-yl)carbonyl]benzyl}-5,6,7,8-tetrahydrophthalazin-1(2H)-one]
1.3 | CCC(=O)N1CCN(C(=O)c2cc(Cc3n[nH]c(=O)c4c3CCCC4)ccc2F)CC1 [Example 585, 4-{4-fluoro-3-[(4-propionylpiperazin-1-yl)carbonyl]benzyl}-5,6,7,8-tetrahydrophthalazin-1(2H)-one]
6 | CN(C)CCN(C)C(=O)c1cc(Cc2n[nH]c(=O)c3c2NCCC3)ccc1F [Example 513, N-[2-(dimethylamino)ethyl]-2-fluoro-N-methyl-5-[(5-oxo-1,2,3,4,5,6-hexahydropyrido[2,3-d]pyridazin-8-yl)methyl]benzamide]
